Data taken from patent publication US20240041838A1, “METHODS AND COMPOSITIONS FOR INHIBITION OF NEUTROPHIL RECRUITMENT IN MYCOCARDIAL ISCHEMIA-REPERFUSION INJURY” (University of Connecticut, priority 2022, published 2024).
Where “and” joins values, the source holds several entries; their conditions need not be identical. Equal values may be shown once. Read-outs that look alike come from different tables or passages of the source.

Tests used:
[1] = pharmacokinetics after i.p. injection in mice; type: in vivo, mouse; conditions: plasma
Description: Pharmacokinetics was performed through a service provided by the Shanghai Institute of Materia Medica. […] Blood samples (20 μL) were collected at 3 min, 15 min, 45 min, 2 h, 4 h, 8 h, and 24 h through femoral vein phlebotomy. 200 μL of methanol:acetonitrile (1:1, v/v) with internal standard was added to […] of plasma and vortexed thoroughly. After centrifuging at 11000 rpm, RT for 5 min, 20 μL of the supernatant was collected and mixed with 20 μL of water for analysis. Samples were analyzed by a TQ-S triple quadrupole mass spectrometer (Waters, Milford, MA, USA). An Acquity Uplc Beh C18 Column (1.7 μm, 2.0 mm×50 mm, Waters) was used for the analysis. Gradient elution was applied consisting of 5 mM […] containing 0.1% formic acid and methanol:acetonitrile (1/9, v/v) containing 0.1% formic acid.

[2] = test system: Rac-1 activation in human neutrophils; experiment: Rac-1-GTP pull-down and western blot in human neutrophils; type: cell-based; conditions: 10 μM, RT 1 hour, IL-8 1 μg·mL^−1, increase about 60% without drug
human neutrophils [3] = experiment: neutrophil viability by flow cytometry (Ghost Dye Blue 516); type: cell-based; conditions: 100 μM Nexinhib20, one hour at room temperature
Description: After washes, neutrophils were incubated with Ghost Dye Blue 516 at RT for 15 minutes. After washes, cell fluorescence was assessed with an LSRII (BD Biosciences, San Jose, CA) and analyzed with FlowJo software (version 10.6).

[4] = test system: IL-8-induced Ca^2+ signal in neutrophils; experiment: intracellular Ca2+ flux by Fluo-4 time-resolved flow cytometry; type: cell-based, human; conditions: 10 μM, RT 1 hour; 1 μg·mL^−1 IL-8
Description: To monitor the dynamics of intracellular calcium (Ca^2+) flux, neutrophils (2×10^6 cells·mL^−1 in RPMI-1640 without phenol red plus 2% HSA) were incubated with Fluo-4 (4 μg·mL^−1) for one hour at RT. After washes, neutrophils were resuspended in RPMI-1640 without phenol red plus 2% HSA and assessed by an LSRII analyzer (BD Biosciences, San Jose, CA). One minute after analyzing, 1 μg·mL^−1 IL-8 was added to the cells. Cells were put back into the analyzer for another 9 minutes. The curves showing the dynamics of intracellular Ca^2+ flux (FIG. 2H) were generated by FlowJo software (version 10.6). The quantification of Fluo-4 MFI (FIG. 2I) was analyzed by FlowJo software (version 10.6) and obtained from three individual experiments.

human neutrophils [5] = conditions: 30 mins GM-CSF and fMLP; pretreatment; cited from earlier work
[6] = test system: β2 integrins on human neutrophils; experiment: flow cytometry of β2 integrin activation and exocytosis (mAb24, KIM127, TS1/18) after IL-8; type: cell-based; conditions: for inhibition at 10 µM: Homo sapiens, Neutrophil
Description: To monitor the dynamics of β2 integrin activation, 400 μL of 2.5×10^5 cells·mL^−1 neutrophils were assessed by an LSRII analyzer (BD Biosciences, San Jose, CA) for 10 s. After adding 0.5 μg·mL^−1 AF488-conjugated mAb24 and DL550-conjugated KIM127 (final concentration), cells were put back into the analyzer for another 5 minutes. Then, after adding 1 μg·mL^−1 IL-8, cells were put back into the analyzer for another 10 minutes. The curves showing the dynamics of integrin activation (FIGS. 2A, 2B) were generated by FlowJo software (version 10.6). The antibody specificities were validated in our previous study using β2 integrin knockout cells and β2-integrin-activation-deficient talin-1 knockout cells. Compensations were performed before all experiments.
To quantify the percentage of mAb24 and KIM127 epitopes and assess inhibition of β2 integrin exocytosis, pan-CD18 […] TS1/18, which has the same isotype (mouse IgG1) as mAb24 and KIM127, was used. […] Neutrophils were mixed with unconjugated mAb24 (1 μg·mL^−1), KIM127 (1 μg·mL^−1), […] (1 μg·mL^−1), or mouse IgG1 isotype control (1 μg·mL^−1), and incubated with 1 μg·mL^−1 IL-8 at RT for 10 min. After incubation, neutrophils were fixed by 1% PFA at 4° C. for 10 min. After two washes with PBS, cells were incubated with APC-conjugated rat anti-mouse IgG1 secondary mAb (1 μg·mL^−1) at RT for 10 min. After two washes with PBS, cell fluorescence was assessed with an LSRII (BD Biosciences, San Jose, CA) and analyzed with FlowJo software (version 10.6). The quantifications of mAb24, KIM127, TS1/18, and isotype mean fluorescence intensities (MFI) (FIGS. 2C-2E) were analyzed by FlowJo software (version 10.6) and obtained from six replicates. MFI of isotype controls was subtracted as background signal. Since mAb24, KIM127, and TS1/18 are all IgG1 isotypes and we used the same secondary antibody, the percentage of high-affinity and extended β2 integrins (FIGS. 2F and 2G) can be calculated by dividing the MFI of mAb24 and KIM127 by the MFI of TS1/18.

human neutrophils [7] = experiment: total ROS production of isolated human neutrophils after PMA; type: cell-based; conditions: 10 μM; after 50 min of 100 nM PMA; ICAM-1-coated wells
Description: ROS production of isolated human neutrophils was quantified by using the Total ROS Assay kit from Invitrogen. A black, clear bottom, non-treated 96-well plate was used in this assay. Before the assay, the 96-well plate was coated with 10 μg·mL^−1 human ICAM-1-Fc at RT for 2 hours and washed twice with PBS. […] After centrifuging at 300×g, RT for 2 min, cells were resuspended at 10^6 cells·mL^−1 in the ROS Assay Stain Solution from the kit and incubated with 2 μg·mL^−1 mouse anti-human CD18 blocking mAb (TS1/18 to block neutrophil adhesion) or isotype control at RT for 10 min. The 100 μL·well^−1 neutrophils (3 replicates per group) were seeded into the ICAM-1-coated 96-well plate. The background ROS before stimulation was measured by Cytation 1 Cell Imaging Multi-Mode Reader (Filter set: Green, Ex: 485/20 nm, Em: 528/20 nm, BioTek, Santa Clara, CA). Then 100 nM PMA was added to each well, and ROS production was measured by Cytation 1 Cell Imaging Multi-Mode Reader every 5 minutes.

In the case of `CC(C)(C)C(=O)/C(=C\c1cccc([N+](=O)[O-])c1)n1cncn1` [Nexinhib20, 4,4-dimethyl-1-(3-nitrophenyl)-2-(1H-1,2,4-triazol-1-yl)-1-penten-3-one], the concentration at 4 h ([1]; male, mouse, ip, 0.8 μmol per mouse, 4 h) is reported as < 28800 ng/mL and < 96 nM, the half-life ([1]; male, mouse, ip, 0.8 μmol per mouse, one phase exponential decay fit, 95% CI) is reported as 11.5 to 16.3 min and the “time within which Nexinhib20 was degraded” value [1] is reported as at most 2 h. The “IL-8-induced increase of Rac-1-GTP” value [2] was “eliminated these increases”, the neutrophil viability (human neutrophils [3]) was about 100% and the “IL-8-induced Ca^2+ signal (Fluo-4)” value [4] was “potently blocked”. The CD11b upregulation (human neutrophils [5]) was “diminished”, the “β2 integrin exocytosis (total CD18 surface expression, TS1/18)” value ([6]; 10 μM, RT 1 hour, 10 min 1 μg·mL^−1 IL-8) was “inhibited significantly” and the “percentage of high-affinity β2 integrins (mAb24 MFI/TS1/18 MFI)” value ([6]; 10 μM, 10 min after IL-8) was “reduced the percentage of high-affinity”. The inhibition at 10 µM ([6]; RT 1 hour, 10 min 1 μg·mL^−1 IL-8, read-out: inhibition of IL-8-induced elevation of KIM127 (extended β2 integrins)) was about 20%, the inhibition at 10 µM ([6]; RT 1 hour, 10 min 1 μg·mL^−1 IL-8, read-out: inhibition of IL-8-induced elevation of mAb24 (high-affinity β2 integrins)) was about 75% and the “total ROS production” value (human neutrophils [7]) was “significantly reduced”.
